The values that follow come from paper PMC11273930, “Bioactive Bioxanthracene and Cyclodepsipeptides from the Entomopathogenic Fungus Blackwellomyces roseostromatus BCC56290” (Antibiotics, 2024).

Converted amounts (≈) assume the structure as drawn. “And” between values parts separate entries of the source, which are not always exact repeats. Equal values may be shown once. Read-outs that look alike come from different tables or passages of the source. Where a SMILES comes first, the peptide text is derived from it. [ ]: non-standard residue; d: D form. PhLac = O=C(O)[C@@H](O)Cc1ccccc1; NMeA = CN[C@@H](C)C(=O)O

In assay [1] the test system is L929 (murine) mouse fibroblasts. Kind of assay: Cytotoxicity (MTT) assay. Type of assay: cell-based. As to the method: (§1) In vitro cytotoxic activity of the isolated compounds was tested by applying the MTT (3-(4,5-dimethylthiayol-2-yl)-2,5-diphenyltetrazolium bromide) assay as previously reported. The mammalian cell lines used in the tests were sourced from DSMZ and included mouse fibroblasts (L929) and endocervical adenocarcinoma (KB3.1), human lung carcinoma (A549), breast adenocarcinoma (MCF-7), human ovarian cancer (SKOV-3), prostate carcinoma (PC-3), and epidermoid carcinoma cells (A431).

The subject of assay [2] is Acinetobacter baumanii (DSM 30008). Kind of assay: Antimicrobial assay (MIC). Set-up: key: -: no inhibition observed. Type of assay: cell-based. Here is the method:
(§2) The antimicrobial activity of the isolated secondary metabolites was determined using our established protocol, against clinically relevant microorganisms obtained from the German Collection of Microorganisms and Cell Cultures (DSMZ, Braunschweig, Germany). These included Staphylococcus aureus (DSM 346), Bacillus subtilis (DSM 10), Acinetobacter baumanii (DSM 30008), Escherichia coli (DSM 1116), Chromobacterium violaceum (DSM 30191), Pseudomonas aeruginosa (PA14), Mycolicibacterium smegmatis (ATCC 700084), Candida albicans (DSM 1665), Mucor hiemalis (DSM 2656), Rhodotorula glutinis (DSM 10134), Schizosaccharomyces pombe (DSM 70572) and Pichia anomala (DSM 6766). Nystatin was used as an antifungal positive control whereas oxytetracycline, ciprofloxacin, gentamicin, and kanamycin were used as positive controls against Gram-positive and Gram-negative bacteria.

The subject of assay [3] is Chromobacterium violaceum (DSM 30191). Nature of the assay: Antimicrobial assay (MIC). It is filed as cell-based. More on the design: key to MIC (µg/mL): -: no inhibition observed. Here is the method: as §2
Assay [4] deals with Bacillus subtilis (DSM 10). Nature of the assay: Antimicrobial assay (MIC). It is filed as cell-based. More on the design: key to MIC (µg/mL): -: no inhibition observed. As to the method: as §2
Assay [5] concerns Escherichia coli (DSM 1116). Nature of the assay: Antimicrobial assay (MIC). Type of assay: cell-based. More on the design: key to MIC (µg/mL): -: no inhibition observed. As to the method:
as §2

Assay [6] concerns Pichia anomala (DSM 6766). Kind of assay: Antimicrobial assay (MIC). It is filed as cell-based. Set-up: key to MIC (µg/mL): -: no inhibition observed. As to the method: as §2
Assay [7] deals with Pseudomonas aeruginosa (PA14). Kind of assay: Antimicrobial assay (MIC). It is filed as cell-based. Set-up: key to MIC (µg/mL): -: no inhibition observed. As to the method: as §2
Assay [8] relates to Mycobacterium smegmatis (ATCC 700084). Nature of the assay: Antimicrobial assay (MIC). It is filed as cell-based. Set-up: key to MIC (µg/mL): -: no inhibition observed. As to the method: as §2
Assay [9] has as its system Staphylococcus aureus (DSM 346). Kind of assay: Antimicrobial assay (MIC). Set-up: key to MIC (µg/mL): -: no inhibition observed. It is filed as cell-based. Here is the method: as §2
Assay [10] deals with Rhodotorula glutinis (DSM 10134). Kind of assay: Antimicrobial assay (MIC). Type of assay: cell-based. More on the design: key to MIC (µg/mL): -: no inhibition observed. Here is the method:
as §2

Assay [11] has as its system Mucor hiemalis (DSM 2656). Nature of the assay: Antimicrobial assay (MIC). Type of assay: cell-based. More on the design: key to MIC (µg/mL): -: no inhibition observed. As to the method: as §2
The subject of assay [12] is Candida albicans (DSM 1665). Nature of the assay: Antimicrobial assay (MIC). Type of assay: cell-based. Set-up: key to MIC (µg/mL): -: no inhibition observed. Here is the method: as §2
The test system of assay [13] is Schizosaccharomyces pombe (DSM 70572). Nature of the assay: Antimicrobial assay (MIC). Type of assay: cell-based. More on the design: key to MIC (µg/mL): -: no inhibition observed. Here is the method: as §2
Assay [14] relates to KB3.1 (cervix) endocervical adenocarcinoma. It is filed as cell-based, human. Here is the method: as §1
For assay [15], the system named is Caenorhabditis elegans. Nature of the assay: Nematicidal activity assay. It is filed as in vivo. To be noted: 18 h. Here is the method:
The nematicidal activity assay was conducted following a previously described procedure with slight modifications. C. elegans was cultured on nematode growth medium (NGM) containing 3 g NaCl, 20 g agar, 2.5 g peptone, 1 mL 1 M CaCl2, 25 mL of 1 M (pH 6.0) KPO4, 1 mL 1 M MgSO4, and 1 mL cholesterol (5 mg/mL in ethanol) per liter of medium. Plates were coated with Escherichia coli strain OP50, which served as the food source for nematodes. Synchronization of the nematode population was performed using a high egg density plate (~120 h). The plate was rinsed three times with 4 mL of 0.9% NaCl solution and then transferred to a 15 mL falcon tube. The nematode suspension was centrifuged at 1000 rpm for 3 min, and the supernatant was discarded. This procedure was repeated until a clear nematode suspension was obtained. After the last washing step, 2 mL of the suspension was mixed with 5 mL of bleaching solution (1 mL sodium hypochlorite solution, 0.5 mL 5 M NaOH, and 3.5 mL Milli-Q water). The solution was gently shaken for approximately 5 min to break down the nematode tissue, and monitored under the microscope. The reaction was stopped by adding 7 mL 0.9% NaCl solution when traces of adults were still visible. Subsequently, the suspension was centrifuged at 2500 rpm for 2 min and washed 3 times as previously described. After the final washing step, the supernatant was removed, and the volume was adjusted to 7 mL with 0.9% NaCl solution. The nematode egg suspension was incubated at 23 °C on a rotary shaker at 80 rpm for 18 h. The hatched nematodes were transferred to a fresh NGM plate supplemented with E.coli OP50. After 50–70 h, the J4 and adult C. elegans were washed from the plate as mentioned above. The nematode concentration was determined and diluted to approximately 1000 nematodes/mL.
Pure compounds were tested at concentrations of 10, 50, and 100 μg/mL in 48-well microtiter plates. The compounds, dissolved in MeOH, were added to the well plate and subsequently dried under nitrogen. After complete evaporation of the solvent, 300 μL of the nematode suspension (1000 nematodes/mL) was added to the compounds. Each treatment was replicated three times. MeOH was used as the negative control while 1 μg/mL Ivermectin served as the positive control. Nematodes were monitored 15 min after inoculation, and the plates were incubated at 24 °C and 150 rpm for 18 h. After incubation, both alive and dead nematodes were counted in three replicates under a stereomicroscope, and the mortality rate was calculated. Erect and non-moving nematodes were considered dead. […] The observed percentage of dead nematodes was corrected by considering the natural mortality observed in the negative control, using the Schneider-Orelli formula [30].

[16] abbreviates: MTT assay, KB3.1 (cervix), read-out: IC50.
The mark [17] stands for this setting: 10 µg/mL, J4 and adult C. elegans, 24 °C, corrected by Schneider-Orelli formula vs methanol control, mean ± SD (n ≥ 3), < 0: less active than negative control.
[18] abbreviates: 50 µg/mL, J4 and adult C. elegans, 24 °C, corrected by Schneider-Orelli formula vs methanol control, mean ± SD (n ≥ 3).
[19] abbreviates: 100 µg/mL, J4 and adult C. elegans, 24 °C, corrected by Schneider-Orelli formula vs methanol control, mean ± SD (n ≥ 3).

By IC50 is commonly meant the concentration that inhibits the measured activity by half. In the case of “3S,4S-HMDA-L-Trp^1-L-Trp^2-L-Phe (lariat or depsi) [Compound 3, Beauveriolide U, previously undescribed cyclic tetradepsipeptide, HMDA-Trp-Trp-Phe, C42H49N5O5]”, the IC50 in assay [1] and in assay [14] (setting [16]) was greater than 35 µM each time. Besides, the “MIC (µg/mL)” value in assay [2], in assay [3], in assay [4], in assay [5], in assay [6] and in [7] was “-” in each case. Besides, the “MIC (µg/mL)” value in assay [8], in [9], in [10], in assay [11], in assay [12] and in [13] was “-” in each case. The “Corrected mortality rate (%)” value in assay [15] (setting [17]) is reported as less than 0%; in assay [15] (setting [18]) it was 6.0 ± 1.5%; in assay [15] (setting [19]), 32.1 ± 7.0%.

As to `CC(C)C[C@@H]1NC(=O)[C@H](Cc2ccccc2)OC(=O)[C@H](C)N(C)C(=O)[C@H](CC(C)C)NC(=O)[C@H](Cc2ccccc2)NC(=O)[C@H](C)N(C)C1=O` [Compound 4, Cardinalisamide D] (cyclo([PhLac]L[NMeA]FL[NMeA])), the IC50 in assay [1] is greater than 35 µM; in assay [14], 36.2 µM. The “MIC (µg/mL)” value in assay [2], in assay [3], in assay [4], in assay [5], in [6] and in assay [7] was “-” throughout. Besides, the “MIC (µg/mL)” value in assay [8], in assay [9], in assay [10], in assay [11], in assay [12] and in assay [13] was “-” each time. Further, the “Corrected mortality rate (%)” value in assay [15] (setting [17]) amounted to 13.7 ± 5.2%; in assay [15] (setting [18]) it was 14.2 ± 4.9%; in assay [15] (setting [19]) it was 23.4 ± 7.4%.

For orientation: MIC means the smallest concentration in the dilution series that meets the test's criterion for growth inhibition. On to `CNC(C)C1CCC(N)C(OC2C(N)CC(N)C(OC3OCC(C)(O)C(NC)C3O)C2O)O1` (centres unmarked) [Gentamycin, reference compound], for which the MIC in [3] (DSM30191) was 1.7 µg/mL (≈ 3.56 µM); in assay [5] (DSM1116), 0.83 µg/mL (≈ 1.74 µM); in [7], 0.42 µg/mL (≈ 0.879 µM); in assay [9] (DSM346) it was 0.42 µg/mL (≈ 0.879 µM).

Take `NC[C@H]1O[C@H](O[C@H]2[C@H](O)[C@@H](O[C@H]3O[C@H](CO)[C@@H](O)[C@H](N)[C@H]3O)[C@H](N)C[C@@H]2N)[C@H](O)[C@@H](O)[C@@H]1O` [Kanamycin, reference compound]: the “MIC” value in assay [8] is on record as 0.1 µg/mL (≈ 0.206 µM).

As for `C[C@@H]1[C@H](O)[C@@H](C)/C=C/C=C/CC/C=C/C=C/C=C/C=C/C(O[C@H]2O[C@H](C)[C@@H](O)[C@H](N)[C@@H]2O)CC2O[C@](O)(CC(O)C(O)CCC(O)CC(O)CC(O)CC(=O)O[C@H]1C)CC(O)C2C(=O)O` (some centres unmarked) [Nystatin, reference compound], the “MIC” value in [6] stood at 4.2 µg/mL (≈ 4.54 µM); in assay [10], 1.0 µg/mL (≈ 1.08 µM); in assay [11] it was 4.2 µg/mL (≈ 4.54 µM); in assay [12], 2.1 µg/mL (≈ 2.27 µM); in [13] it was 2.1 µg/mL (≈ 2.27 µM).

`CN(C)[C@@H]1C(O)=C(C(N)=O)C(=O)[C@@]2(O)C(O)=C3C(=O)c4c(O)cccc4[C@@](C)(O)[C@H]3[C@H](O)[C@@H]12` [Oxytetracyclin, reference compound]: the MIC in assay [4] (DSM10) was determined as 16.6 µg/mL (≈ 36.1 µM).

For ES-242-9 [Compound 1], the values for the IC50 in assay [1] and in [14] (setting [16]) were greater than 35 µM and 29.2 µM, respectively. Also, the “MIC (µg/mL)” value in assay [2], in [3], in assay [4], in assay [5], in [6] and in assay [7] was “-” in each case. Also, the “MIC (µg/mL)” value in [8], in assay [9], in assay [10], in assay [11], in [12] and in [13] was “-” each time. Moreover, the “Corrected mortality rate (%)” value is 33.4 ± 5.3% in assay [15] (setting [17]); 31.7 ± 7.1% in assay [15] (setting [18]); 51.1 ± 5.3% and 51.1% in [15] (setting [19]).

Turning to “HMDA-Trp-Ala-Phe (lariat or depsi) [Compound 2, Beauveriolide T]”, the IC50 in assay [1] and in assay [14] (setting [16]) was greater than 35 µM throughout. The “MIC (µg/mL)” value in assay [2], in assay [3], in assay [4], in assay [5], in [6] and in assay [7] was “-” each time. Moreover, the “MIC (µg/mL)” value in assay [8], in [9], in [10], in assay [11], in [12] and in assay [13] was “-” throughout. In addition, the “Corrected mortality rate (%)” value is reported as 11.6 ± 6.4% in assay [15] (setting [17]), 33.1 ± 6.7% in assay [15] (setting [18]) and 36.1 ± 7.3% in [15] (setting [19]).

For Ivermectin [reference compound], the “Corrected mortality rate (%)” value in assay [15] (1 µg/mL, positive control, C. elegans, corrected mortality, mean ± SD) is 87.4 ± 6.5%.
